These results are taken from article PMC9106008, “Design, Synthesis and Biological Evaluation of N-phenylindole Derivatives as Pks13 Inhibitors againstMycobacterium tuberculosis” (Molecules, 2022).

For series [1], the system named is Mtb H37Rv strain. Kind of series: microplate alamar blue assay (MABA), MIC. To be noted: lowest concentration leading to at least 90% inhibition of bacterial growth signal, average of three measurements. In kind it is cell-based, Mycobacterium tuberculosis.
A short description of series [2]: liver microsome stability assay. To be noted: for T1/2 / Remaining (T = 60 min): human liver microsomes; for T1/2: 0.1 µM compound, NADPH 1 mM, 37 °C; for Remaining (T = 60 min): 60 min incubation.
The conditions of series [3]: human, microsomes, 0.1 µM, pH 7.4.
For series [4], the target named is Pks13-TE (Mycobacterium tuberculosis, UniProt I6X8D2). In words: biochemical. In kind it is binding. To be noted: Pks13-TE 30 µM, 3% DMSO, average of three measurements; for ΔTm at 150 µM: compound 150 µM (1:5); for ΔTm at 300 µM: compound 300 µM (1:10).
For series [5], the system named is Mtb H37Rv strain. To be noted: MABA, cited from earlier work.
Where [6] appears, read: Mycobacterium tuberculosis, H37RV, read-out: MIC.

Values after ≈ are worked out from the molar mass of the structure shown. Where two headings read alike, the source gives them in different places. Where only a bound is given, the exact number is not on record here.

Pks13-TE, sequence (I6X8D2 1451-1733): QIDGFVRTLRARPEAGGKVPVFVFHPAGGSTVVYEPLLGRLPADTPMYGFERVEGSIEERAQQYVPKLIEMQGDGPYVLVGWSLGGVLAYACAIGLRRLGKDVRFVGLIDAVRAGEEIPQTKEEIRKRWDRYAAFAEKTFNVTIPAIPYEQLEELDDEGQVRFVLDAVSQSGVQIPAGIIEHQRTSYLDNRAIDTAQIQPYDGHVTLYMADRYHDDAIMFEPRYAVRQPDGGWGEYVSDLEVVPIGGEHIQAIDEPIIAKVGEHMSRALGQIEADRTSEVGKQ

Turning to `CCNC(=O)c1c(-c2ccc(O)cc2)n(-c2ccccc2)c2ccc(O)c(CN3CCCCC3)c12` [Compound 25, N-ethyl-5-hydroxy-2-(4-hydroxyphenyl)-1-phenyl-4-(piperidin-1-ylmethyl)-1H-indole-3-carboxamide], the MIC in series [1] (setting [6]) was found to be 8 µg/mL (≈ 17 µM).

`CC(=O)c1c(C)n(-c2ccc(Br)cc2)c2ccc(O)c(CN3CCCCC3)c12` [Compound 58, 1-(1-(4-bromophenyl)-5-hydroxy-2-methyl-4-(piperidin-1-ylmethyl)-1H-indol-3-yl)ethan-1-one]: in series [1] (setting [6]), the MIC was 0.125 µg/mL (≈ 0.283 µM). In series [2], the T1/2 is given as 58.0 min. In addition, in series [3], the “CLint(liver)” value is listed as 21.5 mL/min/kg and the “CLint(mic)” value is on record as 23.9 µL/min/mg. The “Remaining (T = 60 min)” value in series [3] (1 h) is reported as 47.3%. For the same molecule, in series [4], the ΔTm at 150 µM is 9.5 ± 0.04 °C and the ΔTm at 300 µM is 7.6 ± 0.01 °C. For `CCOC(=O)c1c(C)n(-c2ccc(N(C)C)cc2)c2ccc(O)c(CN3CCCCC3)c12` [Compound 49, Ethyl 1-(4-(dimethylamino)phenyl)-5-hydroxy-2-methyl-4-(piperidin-1-ylmethyl)-1H-indole-3-carboxylate], the MIC was 0.5 to 8 µg/mL (≈ 1.15 to 18.4 µM) in series [1] (setting [6]) and 1 µg/mL (≈ 2.3 µM) in series [1].

On to `CCOC(=O)c1c(C)n(-c2ccc(C)cc2)c2ccc(O)c(CN3CCCCC3)c12` [Compound 31, Ethyl 5-hydroxy-2-methyl-4-(piperidin-1-ylmethyl)-1-(p-tolyl)-1H-indole-3-carboxylate], for which the results for the MIC in series [1] (setting [6]) and in series [1] were 0.5 to 8 µg/mL (≈ 1.23 to 19.7 µM) and 1 µg/mL (≈ 2.46 µM), respectively. For the molecule `CCOC(=O)c1c(-c2ccc(OC)cc2)n(-c2ccccc2)c2ccc(O)c(CN3CCCCC3)c12` [Compound 17, Ethyl 5-hydroxy-2-(4-methoxyphenyl)-1-phenyl-4-(piperidin-1-ylmethyl)-1H-indole-3-carboxylate], the MIC in series [1] (setting [6]) turned out to be 4 µg/mL (≈ 8.25 µM). Turning to `CCNC(=O)c1c(-c2ccc(OC)cc2)n(-c2ccccc2)c2ccc(O)c(CN3CCCCC3)c12` [Compound 23, N-ethyl-5-hydroxy-2-(4-methoxyphenyl)-1-phenyl-4-(piperidin-1-ylmethyl)-1H-indole-3-carboxamide], the MIC in series [1] (setting [6]) turned out to be 16 µg/mL (≈ 33.1 µM). For the molecule `CCOC(=O)c1c(C)n(-c2ccccc2)c2ccc(O)c(CN3CCCCC3)c12` [Compound 28, Ethyl 5-hydroxy-2-methyl-1-phenyl-4-(piperidin-1-ylmethyl)-1H-indole-3-carboxylate], the MIC in series [1] (setting [6]) came to 8 µg/mL (≈ 20.4 µM). In series [4], the ΔTm at 150 µM worked out at 8.6 ± 0.01 °C and the ΔTm at 300 µM was 7.8 ± 0.04 °C. For the molecule `CCOC(=O)c1c(-c2ccccc2)[nH]c2ccc(O)c(CN3CCCCC3)c12` [Compound 9], the MIC in series [5] (reference compound for comparison) is reported as 32 µg/mL (≈ 84.6 µM). As for `C[C@]12CC[C@H]3[C@@H](CCC4=CC(=O)CC[C@@]43C)[C@@H]1CC[C@@H]2O` [Testosterone], in series [2], the T1/2 amounted to […] and the “Remaining (T = 60 min)” value is listed as […]. In series [2] (human, microsomes, pH 7.4), this molecule showed a CLint scaled at 0.1 µM of […].

In the case of `CC(=O)c1c(C)n(-c2ccc(-c3ccccc3)cc2)c2ccc(O)c(CN3CCCCC3)c12` [Compound 45, 1-(1-([1,1′-biphenyl]-4-yl)-5-hydroxy-2-methyl-4-(piperidin-1-ylmethyl)-1H-indol-3-yl)ethan-1-one], in series [1] (setting [6]), the minimum inhibitory concentration (MIC) was 0.0625 µg/mL (≈ 0.143 µM). Besides, in series [4], the ΔTm at 150 µM turned out to be 14 ± 0.04 °C and the ΔTm at 300 µM amounted to 13.2 ± 0.65 °C. Turning to `CNC(=O)c1c(C)n(-c2ccccc2)c2ccc(O)c(CN3CCCCC3)c12` [Compound 29, 5-hydroxy-N,2-dimethyl-1-phenyl-4-(piperidin-1-ylmethyl)-1H-indole-3-carboxamide], the MIC in series [1] (setting [6]) and in series [1] was above 64 µg/mL throughout. On to “Ethyl 1-(4-(tert-butyl)phenyl)-5-hydroxy-2-methyl-4-(piperidin-1-ylmethyl)-1H-indole-3-carboxylate [Compound 57]”, for which the MIC in series [1] is 0.5 µg/mL. Consider `O=C(O)Cc1ccccc1Nc1c(Cl)cccc1Cl` [Diclofenac], for which the “Remaining (T = 60 min)” value in series [2] is given as 0.1%. For the same molecule, the “CLint(liver)” value in series [2] (human, scaled from CLint(mic) with 45 mg microsomal protein/g liver, 20 g liver/kg) is listed as 223.1 mL/min/kg. Regarding `CCOC(=O)c1c(-c2ccc(O)cc2)n(-c2ccccc2)c2ccc(O)c(CN3CCCCC3)c12` [Compound 18, Ethyl 5-hydroxy-2-(4-hydroxyphenyl)-1-phenyl-4-(piperidin-1-ylmethyl)-1H-indole-3-carboxylate], the MIC in series [1] (setting [6]) was 2 to 32 µg/mL (≈ 4.25 to 68 µM); in series [1], 2 µg/mL (≈ 4.25 µM).

On to `CNC(=O)c1c(C)n(-c2ccc(OC)cc2)c2ccc(O)c(CN3CCCCC3)c12` [Compound 30, 5-hydroxy-1-(4-methoxyphenyl)-N,2-dimethyl-4-(piperidin-1-ylmethyl)-1H-indole-3-carboxamide], for which the MIC in series [1] (setting [6]) came out at 16 µg/mL (≈ 39.3 µM). In the case of `COc1ccc(-c2c(C(C)=O)c3c(CN4CCCCC4)c(O)ccc3n2-c2ccccc2)cc1` [Compound 19, 1-(5-hydroxy-2-(4-methoxyphenyl)-1-phenyl-4-(piperidin-1-ylmethyl)-1H-indol-3-yl) ethan-1-one], the MIC in series [1] (setting [6]) came out at 4 µg/mL (≈ 8.8 µM). As to `CCOC(=O)c1c(-c2ccc(O)cc2)[nH]c2ccc(O)c(CN3CCCCC3)c12` [Compound 14, Ethyl 5-hydroxy-2-(4-hydroxyphenyl)-4-(piperidin-1-ylmethyl)-1H-indole-3-carboxylate], in series [4], the ΔTm at 150 µM came to 5.5 ± 0.04 °C and the thermal shift (ΔTm) at 300 µM stood at 4.9 ± 0.02 °C. Regarding `CC(=O)c1c(C)n(-c2ccc(C(C)(C)C)cc2)c2ccc(O)c(CN3CCCCC3)c12` [Compound 55, 1-(1-(4-(tert-butyl)phenyl)-5-hydroxy-2-methyl-4-(piperidin-1-ylmethyl)-1H-indol-3-yl)ethan-1-one], in series [1] (setting [6]), the MIC came to 0.125 µg/mL (≈ 0.299 µM). `CC(=O)c1c(C)n(-c2ccc(N(C)C)cc2)c2ccc(O)c(CN3CCCCC3)c12` [Compound 50, 1-(1-(4-(dimethylamino)phenyl)-5-hydroxy-2-methyl-4-(piperidin-1-ylmethyl)-1H-indol-3-yl)ethan-1-one]: the MIC in series [1] (setting [6]) worked out at 0.5 µg/mL (≈ 1.23 µM). Take `CC(=O)c1c(C)n(-c2ccc(N(C)C)cc2)c2ccc(O)c(CN3CCCC3)c12` [Compound 52, 1-(1-(4-(dimethylamino)phenyl)-5-hydroxy-2-methyl-4-(pyrrolidin-1-ylmethyl)-1H-indol-3-yl)ethan-1-one]: the MIC in series [1] (setting [6]) is 0.5 µg/mL (≈ 1.28 µM). In series [4], the ΔTm at 150 µM was determined as 11.4 ± 0.02 °C and the thermal shift (ΔTm) at 300 µM worked out at 10.3 ± 0.04 °C. For the molecule `CCOC(=O)c1c(-c2ccc(OC)cc2)[nH]c2ccc(O)c(CN3CCCCC3)c12` [Compound 13, Ethyl 5-hydroxy-2-(4-methoxyphenyl)-4-(piperidin-1-ylmethyl)-1H-indole-3-carboxylate], the MIC in series [1] (setting [6]) amounted to 32 µg/mL (≈ 78.3 µM). Regarding `CNC(=O)c1c(-c2ccc(OC)cc2)n(-c2ccccc2)c2ccc(O)c(CN3CCCCC3)c12` [Compound 22, 5-hydroxy-2-(4-methoxyphenyl)-N-methyl-1-phenyl-4-(piperidin-1-ylmethyl)-1H-indole-3-carboxamide], the MIC in series [1] (setting [6]) is 16 µg/mL (≈ 34.1 µM). Take `CNC(=O)c1c(-c2ccc(O)cc2)n(-c2ccccc2)c2ccc(O)c(CN3CCCCC3)c12` [Compound 24, 5-hydroxy-2-(4-hydroxyphenyl)-N-methyl-1-phenyl-4-(piperidin-1-ylmethyl)-1H-indole-3-carboxamide]: the MIC in series [1] (setting [6]) was 4 µg/mL (≈ 8.78 µM). With `CC(=O)c1c(C)n(-c2ccc(N(C)C)cc2)c2ccc(O)c(CN(C)C)c12` [Compound 51, 1-(4-((dimethylamino)methyl)-1-(4-(dimethylamino)phenyl)-5-hydroxy-2-methyl-1H-indol-3-yl)ethan-1-one], in series [1] (setting [6]), the MIC was found to be 2 µg/mL (≈ 5.47 µM). For `CC(=O)c1c(C)n(-c2ccc(C(C)(C)C)cc2)c2ccc(O)c(CN3CCCC3)c12` [Compound 56, 1-(1-(4-(tert-butyl)phenyl)-5-hydroxy-2-methyl-4-(pyrrolidin-1-ylmethyl)-1H-indol-3-yl)ethan-1-one], the MIC in series [1] (setting [6]) turned out to be 0.25 µg/mL (≈ 0.618 µM). Still for that read-out and setting: the figure for `CC(=O)c1c(-c2ccc(O)cc2)n(-c2ccccc2)c2ccc(O)c(CN3CCCCC3)c12` [Compound 20, 1-(5-hydroxy-2-(4-hydroxyphenyl)-1-phenyl-4-(piperidin-1-ylmethyl)-1H-indol-3-yl) ethan-1-one] is 16 µg/mL (≈ 36.3 µM). For the molecule `CCOC(=O)c1c(C)n(-c2ccc(OC)cc2)c2ccc(O)c(CN3CCCCC3)c12` [Compound 34, Ethyl 5-hydroxy-1-(4-methoxyphenyl)-2-methyl-4-(piperidin-1-ylmethyl)-1H-indole-3-carboxylate], the values for the MIC in series [1] (setting [6]) and in series [1] were 0.5 to 8 µg/mL (≈ 1.18 to 18.9 µM) and 1 µg/mL (≈ 2.37 µM), respectively. `O=c1oc2cc(O)ccc2c2oc3ccc(O)c(CN4CCCCC4)c3c12` [Compound 7, reference compound]: in series [4], the ΔTm at 150 µM is 11.4 ± 0.03 °C and the ΔTm at 300 µM came to 10.5 ± 0.01 °C. The MIC in series [5] (reference compounds for comparison) was 0.0039 µg/mL (≈ 0.0107 µM).

Regarding `CCOC(=O)c1c(C)n(-c2ccc(F)cc2)c2ccc(O)c(CN3CCCCC3)c12` [Compound 37, Ethyl 1-(4-fluorophenyl)-5-hydroxy-2-methyl-4-(piperidin-1-ylmethyl)-1H-indole-3-carboxylate], the MIC is 0.5 to 8 µg/mL (≈ 1.22 to 19.5 µM) in series [1] (setting [6]) and 1 µg/mL (≈ 2.44 µM) in series [1]. As to `CC(=O)c1c(C)n(-c2ccc(C(C)C)cc2)c2ccc(O)c(CN3CCCCC3)c12` [Compound 54, 1-(5-hydroxy-1-(4-isopropylphenyl)-2-methyl-4-(piperidin-1-ylmethyl)-1H-indol-3-yl)ethan-1-one], the MIC in series [1] (setting [6]) turned out to be 0.125 µg/mL (≈ 0.309 µM). For the molecule `CC(=O)c1c(C)n(-c2ccc(N(C)C)cc2)c2ccc(O)c(CN3CCC(C)CC3)c12` [Compound 53, 1-(1-(4-(dimethylamino)phenyl)-5-hydroxy-2-methyl-4-((4-methylpiperidin-1-yl)methyl)-1H-indol-3-yl)ethan-1-one], in series [1] (setting [6]), the MIC was 1 µg/mL (≈ 2.38 µM).
